The results in this text go back to the NIST ThermoML archive (doi:10.1021/je100125x).

The structures appear in SMILES notation. ± gives the expanded uncertainty stated by the source.

A short description of data set [1]: Molar enthalpy of transition or fusion. As to conditions: Crystal; DSC.
The conditions of data set [2]: Crystal; DTA.

As to `C[C@@H]1CC[C@H]2[C@@H](C)C(=O)O[C@@H]3O[C@@]4(C)CC[C@@H]1[C@]32OO4` [artemisinin], in data set [1], the “Molar enthalpy of transition or fusion” value is 5.81 ± 0.225 kcal/mol. Moreover, the Triple point temperature in data set [2] worked out at 429.6 ± 1.1 K.
